Experimental data from the NIST ThermoML archive (doi:10.1021/je100825b).

Conditions: Liquid, Drop weight

CCCCCCC [heptane] + O=C=O
interfacial tension [mN/m]
Conditions	323 K	353 K
100 kPa	16.8	13.6
2100 kPa	–	10.6
3100 kPa	10.1	–
4000 kPa	–	7.8
4500 kPa	7.8	–
5500 kPa	5.7	–
5600 kPa	–	6.1
6900 kPa	–	4.7
7900 kPa	1.5	–
8500 kPa	–	2.9
9300 kPa	0.11	–
10300 kPa	–	0.8
11200 kPa	–	0.2

C [methane] + CCCCCCC
298.2 K
Conditions	interfacial tension [mN/m]
100 kPa	19.8
2000 kPa	16.5
3000 kPa	15
4000 kPa	13.4
6000 kPa	10.1
8000 kPa	7.9
15000 kPa	2.3

N#N [nitrogen] + CCCCCCC
323.2 K
Conditions	interfacial tension [mN/m]
100 kPa	17.6
3400 kPa	16
6900 kPa	13.7
10400 kPa	12
